Data from patent publication US8444988B2, “Cancer treatment method” (GlaxoSmithKline LLC, priority 2001, dated 2013).

Assays:
Type in all cases: in vivo
[1] = test system: BT474 (human breast tumor line); test: BT474 subcutaneous human xenograft mouse model, anti-tumor activity; settings: monotherapy (Example 1 at the highest dose tested); BT474 s.c. xenograft; FIG. 2
Experimental: The BT474 xenograft was maintained by serial transplantation in SCID mice. Tumors are initiated by injection of tumor fragments subcutaneously in the axillary region.
Drugs were administered by P.O. or IV. routes. The title compound or salt thereof of Example 1 was formulated in aqueous 0.5% hydroxypropyl methylcellulose, 0.1% Tween 80 and administered as a suspension twice daily for 21 days as indicated in the respective figures. TAXOL® (paclitaxel) (Bristol Myers Squibb Co.) was purchased preformulated in Cremophor-EL saline and diluted into saline to a final Cremophor-EL concentration of 5 or 10% Cremophor-EL for 10 or 20 mg/kg TAXOL® (paclitaxel) therapy respectively. TAXOL® (paclitaxel) was administered IV., once a day, for 5 days (days 1-5 of Example 1 therapy) as indicated in the respective figures. Carboplatin (Sigma) was formulated in saline and was administered I.V., once a day, for two 5 day periods as indicated in the respective figure (days 1-5 and 15-19 of Example 1 therapy).

[2] = test system: NCI H322 (human lung tumor line); test: NCI H322 subcutaneous human xenograft mouse model, anti-tumor activity; settings: monotherapy; NCI H322 s.c. xenograft; FIG. 3
Experimental: Cells were harvested following trypsin digestion and brought to a density of 2×10^6 cells/200 μl in PBS. Tumors were initiated by injection of the cell suspension subcutaneously in the axillary region. In addition some experiments were performed following serial transplantation of tumor fragments in SCID mice. Tumors were initiated by injection of tumor fragments subcutaneously in the axillary region.

[3] = test system: HN5 (human head and neck tumor line); test: HN5 subcutaneous human xenograft mouse model, anti-tumor activity; settings: monotherapy, at highest dose; HN5 s.c. xenograft; FIG. 1
Experimental: HN5 cells were cultured in RPMI 1640+10% Fetal bovine serum, Sodium pyruvate and L-Glutamine at 37° in a 95/5% air/CO2 atmosphere. Cells were harvested following trypsin digestion and brought to a density of 2×10^6 cells/200 μl in PBS. Tumors were initiated by injection of the cell suspension subcutaneously in the axillary region.
For the xenograft models used here solid tumors were measured by electronic caliper measurement through the skin, measurements were typically made twice weekly. In the examples presented, tumors were monitored beyond the duration of therapy
Drugs were administered by P.O. or IV. routes. The title compound or salt thereof of Example 1 was formulated in aqueous 0.5% hydroxypropyl methylcellulose, 0.1% Tween 80 and administered as a suspension twice daily for 21 days as indicated in the respective figures. TAXOL® (paclitaxel) (Bristol Myers Squibb Co.) was purchased preformulated in Cremophor-EL saline and diluted into saline to a final Cremophor-EL concentration of 5 or 10% Cremophor-EL for 10 or 20 mg/kg TAXOL® (paclitaxel) therapy respectively. TAXOL® (paclitaxel) was administered IV., once a day, for 5 days (days 1-5 of Example 1 therapy) as indicated in the respective figures. […]

| Compound | tumor growth inhibition [1] | tumor growth inhibition [2] | tumor growth inhibition [3] |
| --- | --- | --- | --- |
| CC(=O)O[C@H]1C(=O)[C@@]2(C)[C@H]([C@H](OC(=O)c3ccccc3)[C@]3(O)C[C@H](OC(=O)[C@H](O)[C@@H](NC(=O)c4ccccc4)c4ccccc4)C(C)=C1C3(C)C)[C@]1(OC(C)=O)CO[C@@H]1C[C@@H]2O [TAXOL® (paclitaxel), 5β,20-epoxy-1,2α,4,7β,10β,13α-hexa-hydroxytax-11-en-9-one 4,10-diacetate 2-benzoate 13-ester with (2R,3S)-N-benzoyl-3-phenylisoserine] | about 45% | about 45% |  |
| CS(=O)(=O)CCNCc1ccc(-c2ccc3ncnc(Nc4ccc(OCc5cccc(F)c5)c(Cl)c4)c3c2)o1 [Example 1, N-{3-Chloro-4-[(3-fluorobenzyl)oxy]phenyl}-6-[5-({[2-(methylsulfonyl)ethyl]amino}methyl)-2-furyl]-4-quinazolinamine] | about 90% | 100-130% | about 80% |
| N.N.O=C([O-])C1(C(=O)[O-])CCC1.[Pt+2] [Carboplatin, platinum, diammine [1,1-cyclobutane-dicarboxylate(2-)-O,O′]] |  |  | about 45% |
